Patent publication US10413583B2, “Synthetic substrates for enzymes that catalyze reactions of modified cysteines and related methods” (The University of Chicago, priority 2016, dated 2019)

How the values were obtained:
[1] = system: HEPG2 cells; experiment: Epifluorescent imaging of DPP-5 and diacetyl rhodol in HepG2 cells (PalmB, ML348, ML349, palmitate); assay type: cell-based, human; conditions: 1 mM palmitate for 6 hours post-starvation
Experimental: 250,000 HEK293T cells/well, 120,000 HeLa cells/well, or 100,000 HepG2 cells/well were plated in 700 μL DMEM glutamax (10% FBS+1% P/S) into 4-well chambered imaging dish (D35C4-20-1.5-N, Cellvis, Mountain View, Calif., United States of America), which were precoated with 5 μg Poly-D-lysine (30-70 KDa, Alfa Aesar, Haverhill, Mass., United States of America) for 2 h. After 20-24 h, the media was replaced by 1 μM Hoechst 33342 and DMSO/5 μM PalmB in 400 μL DMEM glutamax. After 30 min of incubation at 37° C., the cells were washed with 400 μL of Live Cell Imaging Solution and replaced by 1 μM DPP-5 with DMSO or 5 μM of PalmB in Live Cell Imaging Solution. After 20 min of incubation at 37° C., images were obtained on an inverted epifluorescence microscope (Olympus IX83; Olympus Corporation, Tokyo, Japan) attached with EMCCD camera (Photometrics EVOLVE™ Delta, Photometrics, Tucson, Ariz., United States of America) with 40× oil objective (N/A 1.3) for DPP-5 (excitation filter 500/20, dichroic chroma 89007, emission filter 535/30), Hoechst 33342 (excitation filter 402/15, emission filter 455/50, dichroic chroma 89013), and brightfield. Analyses were performed in ImageJ. For data analysis, the average fluorescence intensity per image in each experimental condition was obtained by selecting ROI in Brightfield and applying that to the corresponding DPP-5 image, average background fluorescence intensity was subtracted and data was normalized to the average fluorescence intensity of the DMSO control. Each experiment was repeated in at least two biological replicates with identical results.
16,000 HepG2 cells/well were plated in 100 μL DMEM glutamax (10% fetal bovine serum (FBS)) into 4 wells of a 96-well chambered imaging dish (P96-1-N, Cellvis, Mountain View Calif., United States of America), which were precoated with 0.7 μg Poly-D-lysine (30-70 KDa, Alfa Aesar, Haverhill, Mass., United States of America) for 2 hrs. After 24 h, cells were washed with Live Cell Imaging Solution and replaced by 1 μM Hoechst 33342 and DMSO/10 μM ML348/10 μM ML349/10 μM of both ML348 and ML349 in 100 μL DMEM glutamax. After 30 min of incubation at 37° C., the cells were washed with 100 μL of Live Cell Imaging Solution and replaced by 1 μM DPP-5 in Live Cell Imaging Solution. After 20 min of incubation at 37° C., images were obtained on an inverted epifluorescence microscope (Leica DMi8; Leica Microsystems, Wetzlar, Germany) equipped with a camera (Hamamatsu Orca-Flash 4.0; Hamamatsu, Hamamatsu City, Japan) with 63× oil objective (N/A 1.4) and light source (Sutter Lamda XL, 300 W Xenon; Sutter Instrument, Novato, Calif., United States of America) for DPP-5 (YFP filter cube 1525306), Hoechst 33342 (DAPI filter cube), and brightfield using Leica LASX software (Leica Microsystems, Wetzlar, Germany). Analyses were performed in ImageJ. Each experiment was repeated in three biological replicates and 8-12 images were considered for plotting bar graphs for quantification. For detailed data analysis, the average fluorescence intensity per image in each experimental condition was obtained by selecting ROI in Brightfield and applying that to the corresponding DPP-5 image, average background fluorescence intensity was subtracted and data was normalized to the average fluorescence intensity of the control experiment. […] 250,000 HEK293T cells/well were plated in 700 μL DMEM glutamax (10% FBS+1% P/S) into three wells of a 4-well chambered imaging dish (D35C4-20-1.5-N, Cellvis, Mountain View, Calif., United States of America), which were precoated with 5 μg Poly-Dlysine (30-70 KDa, Alfa Aesar, Haverhill, Mass., United States of America) for 2 h. After 18 h, the media was replaced by 1 μM Hoechst 33342 in 400 μL DMEM glutamax. […] After 20 min of incubation at 37° C., images were obtained and analyzed as described above. […]

[2] = system: HEPG2 cells; experiment: Fluorescence imaging of RDP-1 with HEPG2 cells (PalmB, palmitate); assay type: cell-based, human; conditions: palmitate pretreatment for 6 hours
Experimental: HEPG2 were plated with […] of DMEM (Gibco, Gaithersburg, Md., United States of America; High Glucose, Glutamax, 10% FBS) a four well chambered imaging dish (D35C4-20-1.5-N, Cellvis, Mountain View, Calif., United States of America) which were precoated with 4 μg Poly-D-lysine (30-70 KDa, Alfa Aesar, Haverhill, Mass., United States of America) for 2 h at room temperature or overnight at 4° C. and grown to ca. 80% confluence prior to imaging. 30 min before the addition of the RDP, the cell culture media was removed and cells were washed with 500 μL of serum-free DMEM (Gibco, Gaithersburg, Md., United States of America; High Glucose, Glutamax, no FBS). The media was then replaced with 500 μL of serum-free DMEM containing 100 nM Mitotracker Deep Red (Thermo Fisher Scientific, Waltham, Mass., United States of America) to assist in focusing and processing) and either 0.1% DMSO carrier as a control or Palm B in DMSO and incubated for 30 min at 37° C. and 5% CO2. The media was removed, the cells were washed with 500 μL of Live Cell Imaging Solution (Thermo Fisher Scientific, Waltham, Mass., United States of America), and 500 μL of 1 μM RDP-1 along with the Palm B or DMSO as control in Live Cell Imaging Solution was added to each well. […]

CCCCCCCCCCCCCCCC(=O)[O-].[Na+] [palmitate, sodium palmitate]
increase in intensity of S-depalmitoylase signal as measured by DPP-5 [1]: ~50% | effect on APT activity as measured by RDP-1 [2]: a decrease in APT activity
